The record followed here is the supplement of paper PMC6045584.

Compound in one test: CCCS(=O)(=O)Nc1ccc(F)c(C(=O)c2c[nH]c3ncc(Cl)cc23)c1F [PLX-4720]
As to the kind of experiment: surviving fraction relative to DMSO-only wells; higher = less growth inhibition. Conditions: exposure time: 5 days. In short, it runs like this:
(§1)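 Viability was determined by CellTiter-Glo luminescence, expressed as surviving fraction normalised to the median of DMSO-only wells. The cells were log-phase tumour cell lines seeded at 250–500 per well in 384-well plates and, after 24 hours, exposed continuously for five days to inhibitors at 0.5, 1, 5, 10, 50, 100, 500 and 1000 nM. Three screens per line were run, keeping only lines with replicate Pearson r >0.7 and median Z' >0.3.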

Compound in a further test: CN(Cc1cnc2nc(N)nc(N)c2n1)c1ccc(C(=O)N[C@@H](CCC(=O)O)C(=O)O)cc1 [METHOTREXATE]
Described as above. Conditions: exposure time: 5 days. In a few lines: as §1

± gives the standard deviation of the averaged measurements.

Consider C33A CERVIX, for which the surviving fraction in the test with PLX-4720 (0.5 nM) was found to be 1.03 ± 0.18; with PLX-4720 (1 nM) it was 0.994 ± 0.044; with PLX-4720 (5 nM), 1.12 ± 0.14; in the test with PLX-4720 (10 nM), 1.13 ± 0.045; with PLX-4720 (50 nM) it was 1.01 ± 0.17; with PLX-4720 (100 nM), 1.05 ± 0.13. Also, the surviving fraction in the test with PLX-4720 (500 nM) was found to be 0.946 ± 0.1; with PLX-4720 (1000 nM), 1.06 ± 0.13; with METHOTREXATE (0.5 nM), 1.01 ± 0.15; with METHOTREXATE (1 nM), 0.936 ± 0.025; with METHOTREXATE (5 nM) it was 0.987 ± 0.11; with METHOTREXATE (10 nM) it was 0.519 ± 0.048. For the same test system, the surviving fraction was 0.592 ± 0.075 in the test with METHOTREXATE (50 nM), 0.585 ± 0.05 with METHOTREXATE (100 nM), 0.566 ± 0.034 in the test with METHOTREXATE (500 nM) and 0.557 ± 0.034 with METHOTREXATE (1000 nM).
CAL72 BONE: the surviving fraction with PLX-4720 (0.5 nM) turned out to be 0.969 ± 0.041; in the test with PLX-4720 (1 nM) it was 1.02 ± 0.036; in the test with PLX-4720 (5 nM), 0.964 ± 0.015; with PLX-4720 (10 nM) it was 1.03 ± 0.035; with PLX-4720 (50 nM), 1.076 ± 0.006; with PLX-4720 (100 nM), 1.104 ± 0.011. Moreover, the surviving fraction was 1.09 ± 0.04 with PLX-4720 (500 nM); 1.08 ± 0.036 with PLX-4720 (1000 nM); 1.04 ± 0.15 with METHOTREXATE (0.5 nM); 1.02 ± 0.13 with METHOTREXATE (1 nM); 1.03 ± 0.13 with METHOTREXATE (5 nM); 1.04 ± 0.11 with METHOTREXATE (10 nM). Further, the surviving fraction with METHOTREXATE (50 nM) worked out at 0.641 ± 0.051; in the test with METHOTREXATE (100 nM) it was 0.323 ± 0.061; with METHOTREXATE (500 nM), 0.301 ± 0.054; in the test with METHOTREXATE (1000 nM), 0.303 ± 0.068.
Take G292 BONE: the surviving fraction in the test with PLX-4720 (0.5 nM) is 0.893 ± 0.022; with PLX-4720 (1 nM), 0.977 ± 0.042; with PLX-4720 (5 nM), 0.973 ± 0.039; with PLX-4720 (10 nM) it was 0.972 ± 0.043; with PLX-4720 (50 nM), 0.956 ± 0.024; in the test with PLX-4720 (100 nM) it was 1.0012 ± 0.00029. For the same test system, the surviving fraction with PLX-4720 (500 nM) was determined as 0.979 ± 0.026; with PLX-4720 (1000 nM), 0.973 ± 0.085; in the test with METHOTREXATE (0.5 nM) it was 1.01 ± 0.048; with METHOTREXATE (1 nM), 1.07 ± 0.032; in the test with METHOTREXATE (5 nM), 1.04 ± 0.069; in the test with METHOTREXATE (10 nM), 1.06 ± 0.042. Also, the surviving fraction turned out to be 1.02 ± 0.042 in the test with METHOTREXATE (50 nM), 1.04 ± 0.029 with METHOTREXATE (100 nM), 1.017 ± 0.0058 with METHOTREXATE (500 nM) and 1.01 ± 0.024 in the test with METHOTREXATE (1000 nM).
In the case of HCC1395 BREAST, the surviving fraction in the test with PLX-4720 (0.5 nM) came out at 0.827 ± 0.0092; with PLX-4720 (1 nM), 0.878 ± 0.15; with PLX-4720 (5 nM), 0.82 ± 0.15; with PLX-4720 (10 nM), 0.787 ± 0.06; in the test with PLX-4720 (50 nM), 0.788 ± 0.17; in the test with PLX-4720 (100 nM), 0.888 ± 0.042. Further, the surviving fraction is 0.824 ± 0.08 in the test with PLX-4720 (500 nM); 0.927 ± 0.098 with PLX-4720 (1000 nM); 1.18 ± 0.047 in the test with METHOTREXATE (0.5 nM); 1.08 ± 0.073 in the test with METHOTREXATE (1 nM); 1.17 ± 0.035 in the test with METHOTREXATE (5 nM); 1.17 ± 0.1 with METHOTREXATE (10 nM). The surviving fraction in the test with METHOTREXATE (50 nM) is 1.12 ± 0.058; in the test with METHOTREXATE (100 nM), 1.26 ± 0.026; with METHOTREXATE (500 nM), 1.03 ± 0.16; with METHOTREXATE (1000 nM), 1.09 ± 0.062.
For HUO3N1 BONE, the surviving fraction with PLX-4720 (0.5 nM) turned out to be 0.849 ± 0.014; in the test with PLX-4720 (1 nM) it was 0.886 ± 0.035; with PLX-4720 (5 nM) it was 0.92 ± 0.055; in the test with PLX-4720 (10 nM), 0.913 ± 0.042; with PLX-4720 (50 nM) it was 0.989 ± 0.028; in the test with PLX-4720 (100 nM), 1.02 ± 0.059. Also, the surviving fraction came out at 1.01 ± 0.063 in the test with PLX-4720 (500 nM); 1.01 ± 0.067 with PLX-4720 (1000 nM); 1.05 ± 0.032 with METHOTREXATE (0.5 nM); 1.04 ± 0.059 with METHOTREXATE (1 nM); 1.084 ± 0.008 in the test with METHOTREXATE (5 nM); 1.08 ± 0.016 with METHOTREXATE (10 nM). Further, the surviving fraction in the test with METHOTREXATE (50 nM) is 0.991 ± 0.041; with METHOTREXATE (100 nM), 0.731 ± 0.029; with METHOTREXATE (500 nM), 0.51 ± 0.035; in the test with METHOTREXATE (1000 nM), 0.51 ± 0.046.
On to LNCAP PROSTATE, for which the surviving fraction with PLX-4720 (0.5 nM) came out at 1.17 ± 0.08; in the test with PLX-4720 (1 nM), 1.08 ± 0.051; with PLX-4720 (5 nM), 1.15 ± 0.097; in the test with PLX-4720 (10 nM), 1.12 ± 0.035; in the test with PLX-4720 (50 nM), 0.892 ± 0.11; in the test with PLX-4720 (100 nM), 0.846 ± 0.011. The surviving fraction in the test with PLX-4720 (500 nM) is 0.898 ± 0.09; in the test with PLX-4720 (1000 nM) it was 1.03 ± 0.12; with METHOTREXATE (0.5 nM), 0.965 ± 0.021; in the test with METHOTREXATE (1 nM), 0.957 ± 0.042; in the test with METHOTREXATE (5 nM), 0.961 ± 0.059; with METHOTREXATE (10 nM), 0.851 ± 0.061. Moreover, the surviving fraction was found to be 0.575 ± 0.011 with METHOTREXATE (50 nM), 0.5 ± 0.024 in the test with METHOTREXATE (100 nM), 0.428 ± 0.018 with METHOTREXATE (500 nM) and 0.422 ± 0.032 in the test with METHOTREXATE (1000 nM).
SCC003 HEADNECK: the surviving fraction is 0.76 ± 0.094 with PLX-4720 (0.5 nM); 0.825 ± 0.065 with PLX-4720 (1 nM); 0.829 ± 0.14 with PLX-4720 (5 nM); 0.81 ± 0.11 with PLX-4720 (10 nM); 0.983 ± 0.06 with PLX-4720 (50 nM); 1.02 ± 0.034 in the test with PLX-4720 (100 nM). For the same test system, the surviving fraction with PLX-4720 (500 nM) came to 1.01 ± 0.035; in the test with PLX-4720 (1000 nM), 1.02 ± 0.17; with METHOTREXATE (0.5 nM) it was 1.09 ± 0.11; with METHOTREXATE (1 nM) it was 1.1 ± 0.033; with METHOTREXATE (5 nM) it was 1.16 ± 0.03; in the test with METHOTREXATE (10 nM) it was 0.87 ± 0.052. Moreover, the surviving fraction in the test with METHOTREXATE (50 nM) came to 0.594 ± 0.021; with METHOTREXATE (100 nM) it was 0.541 ± 0.026; in the test with METHOTREXATE (500 nM), 0.549 ± 0.042; with METHOTREXATE (1000 nM), 0.509 ± 0.037.
